# Experimental data as given in paper PMC10950972, “Relative bioavailability of fedratinib through various alternative oral administration methods in healthy adults” (Cancer Chemotherapy and Pharmacology, 2023).
# Like-named read-outs stand apart in the source and are kept apart here.
# Columns and labels:
# healthy adults = assay: Safety assessment (adverse events) in the phase 1 study; type: in vivo, human
# Procedure: Participants were monitored for adverse events (AEs) during the study, including assessments for clinical symptoms, biochemical, hematologic, and urinalysis laboratory results, physical examinations, 12-lead electrocardiograms, and vital signs. AEs were assessed for seriousness, severity, and relationship to the drug. AEs were assigned to the last study treatment administered at the time of onset, starting during or after the administration of the first dose. AEs that occurred after discharge were assigned to the last study treatment received for up to 30 days after the last dose of fedratinib.
# [1] = parameters: method as in PMID 27136912; conditions: 100 mg and 500 mg doses, healthy volunteers; cited from earlier work
# [2] = Phase 1 relative bioavailability study part 1: plasma pharmacokinetics of fedratinib (2-period crossover); type: in vivo, human; conditions: for AUC(0-t) / AUC(0-inf) / Cmax / Tmax / half-life: human, plasma, po, 400 mg; for half-life: read-out: t½, mean (SD) (converted)
# Procedure: Study part 1 was a 2-period, 2-sequence, open-label, crossover design (Fig. 1A). Treatment 1A (reference) consisted of fedratinib 400 mg (4 × 100-mg capsules) administered orally along with approximately 180 mL of a commercially available nutritional supplement (ie, Ensure Plus). Treatment 1B (test) consisted of fedratinib 400 mg dispersed in a nutritional supplement and administered orally. Participants were randomized to receive treatment in one of the following sequences: 1A–1B or 1B–1A. […] No food or beverages (except water and any nutritional supplement administered with the treatment) were allowed for at least 4 h after dosing.
# Approximately 1 h before each fedratinib administration, ondansetron oral tablet (film coated) 8 mg was given orally to reduce the potential for fedratinib-related nausea and vomiting. There was a washout period of at least 12 days between each dose of fedratinib. The duration from screening through the follow-up phone call was approximately 10 weeks. Participants resided at the clinical site from days -1 to 23 (study part 1), or days -1 to 35 (study part 2). If a participant discontinued from the study for any reason, an early termination visit was performed, with only the safety assessments scheduled for the day of discharge taking place. Additionally, each participant who discontinued also received a follow-up phone call 4 (± 2) days after completion of the early termination visit.
# For study part 1, and part 2 treatments 2A and 2B, blood samples were collected pre-dose (0 h) and at 0.5, 1, 1.5, 2, 3, 4, 6, 8, 12, 24, 48, 72, 120, 168, 192, and 240 h post-dose. For treatment 2C, blood samples were collected pre-dose (0 h) and at 0.5, 1, 1.5, 2, 3, 4, 6, 8, 12, 12.5, 13, 13.5, 14, 15, 16, 18, 24, 48, 72, 120, 168, 192, and 240 h post-dose of the first dose. The plasma concentration of fedratinib was measured using a validated liquid chromatography-tandem mass spectrometry assay with a lower limit of quantification of 1.00 ng/mL [12, 20].
# Plasma PK parameters were calculated using noncompartmental methods by a validated PK analysis program (Phoenix® WinNonlin®, v8.3.4 [Certara USA, Inc., Princeton, NJ, USA]) using actual times. The PK parameters determined for fedratinib Cmax, Tmax, AUC from time 0 to the time of the last quantifiable concentration (AUC0–t), AUC from time 0 to infinity (AUC0–∞), and t½. Additionally for treatment 2C, Cmax and Tmax were estimated after both the first dose (Cmax and Tmax) and the second dose (Cmax2 and Tmax2). AUC0–t and AUC0–∞ were estimated from time 0 (the first dose) through 240 h after the first dose. AUC parameters were calculated using the linear-log trapezoidal method.
# The sample size for this study was based on consideration of the precision in the comparison of PK parameters, represented by the 90% confidence interval (CI) of the geometric mean ratios of Cmax and AUC of fedratinib. […] Only participants with valid PK data were included in the summary statistics and statistical analysis.
# To compare the PK parameters and estimated relative bioavailability of fedratinib following different administration methods in each study part (treatment 1B to 1A, and treatment 2B and 2C to 2A), a linear mixed-effect model with treatment, period, and sequence as fixed effects and participant nested within sequence as a random effect was fitted to the natural log-transformed PK parameters (Cmax, AUC0–t, and AUC0–∞) for use in estimation of effects and construction of CIs.
# In study parts 1 and 2, point estimates and 90% CI for the difference between test and reference treatments was exponentiated, and the ratio of geometric means (test/reference) and associated 90% CI was presented on the original scale. For comparison of treatment 2C to 2A in study part 2, the relative bioavailability assessment was based on only AUC. For Tmax, the difference between test and reference was assessed for significance using Wilcoxon signed-rank test. […]
# [3] = In vitro drug recovery from the nasogastric tube and stability in suspension (data on file); type: physicochemical; conditions: in vitro studies
# Excerpt: Reduced exposure was also unlikely to be due to misplacement of the nasogastric tube, as placement was confirmed through X-ray imaging (data on file). The differences in exposure to fedratinib between treatments 2B, 2C, and 2A were likely to be due to interparticipant variability. Furthermore, the 90% CI for the difference in exposure to fedratinib between treatments 2B and 2A fell within the 0.8–1.25 range conventionally defined as having no clinical effect.
# [4] = Treatment 1B vs 1A (dispersed oral vs intact capsules), linear mixed-effect model
structure (smiles),measurement,setting,value
Cc1cnc(Nc2ccc(OCCN3CCCC3)cc2)nc1Nc1cccc(S(=O)(=O)NC(C)(C)C)c1 [fedratinib],Deaths or serious/severe AEs,"healthy adults; during the study, all treatments",no deaths or serious/severe AEs were reported
same,"AE constipation, participants","healthy adults; human, in vivo",12.1%
same,"AE diarrhea, participants","healthy adults; human, in vivo",10.3%
same,"AE somnolence, participants","healthy adults; human, in vivo",10.3%
same,Moderate AEs reported (number of AEs),"healthy adults; human, in vivo",4
same,Participants discontinued due to AEs,"healthy adults; human, in vivo",3 participants
same,Participants with at least 1 AE,"healthy adults; human, in vivo",65.5%
same,"Increases in exposure (Cmax, AUC) when administered directly after food vs 10-h fasted",[1],< 25%
same,"Terminal elimination half-life (t½), fed vs fasted conditions",[1],remained unaffected
same,AUC0–∞ geometric mean ratio (90% CI),[2]; [4],1.009 (0.939–1.085)
same,Cmax geometric mean ratio (90% CI),[2]; [4],1.059 (0.969–1.157)
same,AUC(0-t),"[2]; Treatment 1A: single 400 mg oral, 4 × 100-mg intact capsules with nutritional supplement, n = 27, read-out: AUC0–t, geometric mean (Geo. %CV)",20 µg·h/mL
same,AUC(0-inf),"[2]; Treatment 1A: single 400 mg oral, 4 × 100-mg intact capsules with nutritional supplement, n = 27, read-out: AUC0–∞, geometric mean (Geo. %CV)",22.1 µg·h/mL
same,Cmax,"[2]; Treatment 1A: single 400 mg oral, 4 × 100-mg intact capsules with nutritional supplement, n = 27, read-out: Cmax, geometric mean (Geo. %CV)",1.32 µg/mL
same,Tmax,"[2]; Treatment 1A: single 400 mg oral, 4 × 100-mg intact capsules with nutritional supplement, n = 27, read-out: Tmax, median (range)",2.1 h
same,half-life,"[2]; Treatment 1A: single 400 mg oral, 4 × 100-mg intact capsules with nutritional supplement, n = 27",103 h
same,AUC(0-t),"[2]; Treatment 1A: single 400 mg oral, intact capsules with nutritional supplement, n = 27, read-out: AUC0–t, geometric mean (statistical analysis)",20.4 µg·h/mL
same,AUC(0-inf),"[2]; Treatment 1A: single 400 mg oral, intact capsules with nutritional supplement, n = 27, read-out: AUC0–∞, geometric mean (statistical analysis)",22.5 µg·h/mL
same,Cmax,"[2]; Treatment 1A: single 400 mg oral, intact capsules with nutritional supplement, n = 27, read-out: Cmax, geometric mean (statistical analysis)",1.35 µg/mL
same,Tmax,"[2]; Treatment 1A: single 400 mg oral, intact capsules with nutritional supplement, n = 27, read-out: Tmax, median (statistical analysis)",2.57 h
same,AUC(0-t),"[2]; Treatment 1B: single 400 mg oral, capsule contents dispersed in nutritional supplement, n = 26, read-out: AUC0–t, geometric mean (Geo. %CV)",20.5 µg·h/mL
same,AUC(0-t),"[2]; Treatment 1B: single 400 mg oral, capsule contents dispersed in nutritional supplement, n = 26, read-out: AUC0–t, geometric mean (statistical analysis)",20.5 µg·h/mL
same,AUC(0-inf),"[2]; Treatment 1B: single 400 mg oral, capsule contents dispersed in nutritional supplement, n = 26, read-out: AUC0–∞, geometric mean (Geo. %CV)",22.7 µg·h/mL
same,AUC(0-inf),"[2]; Treatment 1B: single 400 mg oral, capsule contents dispersed in nutritional supplement, n = 26, read-out: AUC0–∞, geometric mean (statistical analysis)",22.7 µg·h/mL
same,Cmax,"[2]; Treatment 1B: single 400 mg oral, capsule contents dispersed in nutritional supplement, n = 26, read-out: Cmax, geometric mean (Geo. %CV)",1.43 µg/mL
same,Cmax,"[2]; Treatment 1B: single 400 mg oral, capsule contents dispersed in nutritional supplement, n = 26, read-out: Cmax, geometric mean (statistical analysis)",1.43 µg/mL
same,Tmax,"[2]; Treatment 1B: single 400 mg oral, capsule contents dispersed in nutritional supplement, n = 26, read-out: Tmax, median (statistical analysis)",2 h
same,half-life,"[2]; Treatment 1B: single 400 mg oral, capsule contents dispersed in nutritional supplement, n = 26",98.7 h
same,Drug recovery from the nasogastric tube,[3],near-complete drug recovery
same,Stability in suspension,[3],stable up to 1 h in suspension
